“Also recorded” adds a separate entry of the source.
Tests used:
rat PC12 neuronal cells = test: MTT assay, Aβ1-42-induced cytotoxicity in PC12 cells (Example I); settings: MTT; for neuroprotective effect against Aβ-induced neurotoxicity: Aβ1-42
NT2 cells [1] = test: BrdU assay, NT2 cell proliferation; type: cell-based, human
NT2 cells [2] = test: LDH and MTT assays, NT2 cell viability; settings: LDH and MTT; 25-50 μM; 3-day treatment
NT2 cells [3] = test: NT2 cell differentiation, phase-contrast morphology; type: cell-based, human; settings: 25 μM; 3, 6 and 12 days (comparators 6 days)
Aβ [4] = molecular target: T1, Aβ (Homo sapiens, UniProt P05067); test: CPBBA displacement of radiolabeled 22R-hydroxycholesterol from Aβ (Example II); type: binding; settings: 100 μM unlabeled compound; 50 μM Aβ
T1 construct: Aβ1-42 peptide was purchased from American Peptide Co; purchased American Peptide Co. (Sunnyvale, Calif.)
T1 sequence (P05067 672-713): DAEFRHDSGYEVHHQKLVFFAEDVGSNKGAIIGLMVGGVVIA
Description: At the end of the incubation time, samples were separated by 1.5% agarose (Type I-B) gel electrophoresis under native conditions and transferred to nitrocellulose membrane (Schleicher&Schuell, Keene, N.H.) in 10×SSC buffer. The membrane was exposed to tritium-sensitive screen and analyzed by phosphoimaging using the Cyclone Storage phosphor system (Packard BioScience). Image-densitometric analysis was performed using the OptiQuant software (Packard BioScience). […] Low molecular weight unincorporated 22R-hydroxycholesterol and derivatives are separated and eliminated during electrophoresis.

[5] = system: MA-10 mouse tumor Leydig cells; test: Steroid (progesterone) formation in MA-10 Leydig cells; type: in vitro ADME; settings: MA-10 cells, 2 hours
Description: (§1) PC12 cells (rat pheochromocytoma neurons) from ATCC (Manassas, Va.) were cultured at 37° C. and 5% CO2 in RPMI 1640 medium devoid of glutamine and supplemented with 10% fetal bovine serum and 5% horse serum. Yao Z, Drieu K and Papadopoulos V., The Gingko biloba extract EGb 761 rescues PC12 neuronal cells from β-amyloid-induced cell death by inhibiting the formation of (3-amyloid-derived diffusible neurotoxic ligands, Brain Res, 889, 181-190 (2001). Cells were seeded in 96-well plates (8×10^4 cells/well). After an overnight period of incubation, increasing concentrations of aggregated Aβ (0.1, 1 and 10 μM) were added to the cells in the presence or absence of the indicated concentrations of the SP compounds to be tested. After 72-hours incubation time various parameters, markers of cell viability, were determined. Mouse MA-10 tumor Leydig cells were maintained at 37° C. in DMEM/Ham's F12 (Biofluids, Rockville, Md.) medium supplemented with 5% heat-inactivated fetal calf serum and 2.5% horse serum in 5% CO2. Cells were plated on 96-well plates at the density of 2.5×10^4 cells/well for overnight. […]
Progesterone production by MA-10 cells was measured by radioimmunoassay using anti-progesterone antisera (ICN, Costa Mesa, Calif.), following the conditions recommended by the manufacturer. […] Radioimmunoassay data was analyzed using the MultiCalc software (EG&G Wallac, Gaithersburg, Md.). […]

PC12 cells [6] = test: Cellular ATP levels (ATPLite-M) in Aβ-treated PC12 cells; type: cell-based, rat; settings: 0.1 and 1.0 μM Aβ
Description: (§2) PC12 cells (rat pheochromocytoma neurons) from ATCC (Manassas, Va.) were cultured at 37° C. and 5% CO2 in RPMI 1640 medium devoid of glutamine and supplemented with 10% fetal bovine serum and 5% horse serum. Yao Z, Drieu K and Papadopoulos V., The Gingko biloba extract EGb 761 rescues PC12 neuronal cells from β-amyloid-induced cell death by inhibiting the formation of (3-amyloid-derived diffusible neurotoxic ligands, Brain Res, 889, 181-190 (2001). Cells were seeded in 96-well plates (8×10^4 cells/well). After an overnight period of incubation, increasing concentrations of aggregated Aβ (0.1, 1 and 10 μM) were added to the cells in the presence or absence of the indicated concentrations of the SP compounds to be tested. After 72-hours incubation time various parameters, markers of cell viability, were determined. Mouse MA-10 tumor Leydig cells were maintained at 37° C. in DMEM/Ham's F12 (Biofluids, Rockville, Md.) medium supplemented with 5% heat-inactivated fetal calf serum and 2.5% horse serum in 5% CO2. Cells were plated on 96-well plates at the density of 2.5×10^4 cells/well for overnight. The cells were stimulated with the indicated concentrations of the various SP compounds in 0.2 ml/well serum-free medium for 2 hours. The culture medium was collected and tested for progesterone production by radioimmunoassay.
Cellular ATP concentrations were measured using the ATPLite-M™ luminescence assay (Packard BioSciences Co.). For this assay, cells were cultured on black 96-well ViewPlate™ and the ATP concentrations were measured on a TopCount NXT™ counter (Packard BioSciences Co.) following the recommendations of the manufacturer.

[7] = system: PC12 cells (rat pheochromocytoma neurons); test: MTT cytotoxicity assay, Aβ-induced neurotoxicity in PC12 cells (Example II); type: cell-based; settings: for neuroprotective effect compared with SP222 / neuroprotection against 0.1 μM Aβ-induced neurotoxicity / neuroprotection against 1 μM Aβ-induced neurotoxicity / neuroprotection against 10 μM Aβ-induced neurotoxicity: MTT; for neuroprotection against 0.1 μM Aβ-induced neurotoxicity / neuroprotection against 1 μM Aβ-induced neurotoxicity / neuroprotection against 10 μM Aβ-induced neurotoxicity: compounds at 30 and 50 μM, 72 hours; for neuroprotection against Aβ-induced neurotoxicity (structure/activity discussion): PC12 cells
Description: as §2
The cellular toxicity of Aβ was assessed using the 3-(4,5-dimethylthiazol-2-yl)-2,5-diphenyl tetrazolium bromide (MTT) assay (Trevigen, Gaithersburg, Md.). Briefly, 10 μl of the MTT solution were added to the cells cultured in 100 μl medium. After an incubation period of 4 hours, 100 μl of detergent were added and cells were incubated overnight at 37° C. Formazan blue formation was quantified at 600 nm and 690 nm using the Victor quantitative detection spectrophotometer (EGG-Wallac, Gaithersburg, Md.) and the results expressed as (DO600-DO690). […] Liu Y and Schubert D, Steroid hormones block amyloid fibril-induced 3-(4,5-dimethylthiazol-2-yl)-2,5-diphenyltetrazolium bromide (MTT) formazan exocytosis: relationship to neurotoxicity, J. Neurochem., 19, 1639-1662 (1998). For that reason, additional cytotoxicity and cell viability assays were used.
Yao et al., J. Neurochem., 83, 1110-1119 (2002); and Yao et al., The Gingko biloba extract EGb 761 rescues PC12 neuronal cells from β-amyloid-induced cell death by inhibiting the formation of β-amyloid-derived diffusible neurotoxic ligands, Brain Res., 889, 181-190 (2001). To stay close to the concentrations of Aβ present in AD brain, 0.1-10 μM concentrations of Aβ were used. The compounds tested for their neuroprotective properties were examined at 30 and 50 μM concentrations (FIGS. 9-15).

PC12 cells [8] = test: Trypan blue uptake, Aβ-treated PC12 cells (Example II); type: cell-based, rat
Description: as §1
Cell viability was measured using the trypan blue exclusion method as we previously described. […] After washing three times with PBS, 0.1 N NaOH was added to the cells and trypan blue was quantified using the Victor quantitative detection spectrophotometer at 450 nm.

PC12 cells [9] = test: Membrane potential (CytoLite luminescence) in Aβ-treated PC12 cells; type: cell-based, rat; settings: 10 μM Aβ
Description: as §2
Cells viability was also assessed using the luminescence-based kit CytoLite™ (Packard BioScience Co.) according to the recommendations of the manufacturer. Briefly, cells were cultured and treated in 96-well plates and after 72-hours incubation time, 25 μl of Activator solution was added to the cells followed by 150 μl of Amplifier solution. Luminescence was measured on a TopCount NXT™ counter (Packard BioSciences Co.) following a 5 minute precount delay.

Aβ [10] = molecular target: T1, Aβ; test: Immunoblot analysis of Aβ polymerization and ADDL formation; type: biochemical; settings: SP233 1, 10, 100 μM
Description: Increasing concentration of Aβ (0.1, 1 and 10 μM) were incubated in PC12 culture medium for 24 hours and 72 hours at 37° C. under 5% CO2 with or without increasing concentrations of SP233 (1, 10 and 100 μM). At the end of the incubation time, samples were separated by 4-20% Tris-Glycine gel electrophoresis (Invitrogen) under native conditions at 125V for 2 hours and transferred to nitrocellulose membrane (Hybond™ ECL™, Amersham Pharmacia Biotech) at […] for 30 minutes. Non-specific adsorption of the antibodies was blocked by incubating the nitrocellulose in 5% milk. The blots were treated for immunodetection of Aβ species using a polyclonal antibody to Aβ that recognizes a 30 amino acid peptide of the Aβ protein (Zymed Laboratories, San Francisco, Calif.). Membranes were incubated in primary antibody for 1 hour at room temperature at a dilution of 1:2,000. Then, membranes were incubated in the secondary antibody at a dilution of 1:1,000 for 1.5 hours at room temperature. The blots were visualized using the ECL™ Western Blotting Analysis System (Amersham Biosciences). Image-densitometric analysis was performed using the OptiQuant software (Packard BioScience). This method allows for the separation, visualization and identification of Aβ complexes, polymers and ADDLs.

CC(=O)[C@H]1CC[C@H]2[C@@H]3CC=C4C[C@@H](O)CC[C@]4(C)[C@H]3CC[C@]12C [pregnenolone, 5-pregnen-3β-ol-20-one]
neuroprotective effect against Aβ-induced neurotoxicity (rat PC12 neuronal cells): could not be replicated
PC12 cell viability, steroid alone (rat PC12 neuronal cells; absence of Aβ): toxic to the cells
NT2 cell proliferation at 50 μM (NT2 cells [1]): significantly inhibited
cytotoxicity at high concentrations (NT2 cells [2]): cytotoxic

CC(C)CC[C@H](O)[C@@H](C)[C@H]1CC[C@H]2[C@@H]3CC=C4C[C@@H](O)CC[C@]4(C)[C@H]3CC[C@]12C [22S-hydroxycholesterol, 5-cholesten-3β, 22S-diol]
PC12 cell viability, steroid alone at 100 μM (rat PC12 neuronal cells; 100 μM steroid): neurotoxic
neuroprotective effect against Aβ-induced neurotoxicity (rat PC12 neuronal cells): failed to protect; also recorded: inactive
NT2 cell proliferation at 25 μM (NT2 cells [1]; 25 μM): significantly inhibited
NT2 cell proliferation at 50 μM (NT2 cells [1]): significantly inhibited
effect on NT2 cell morphology (differentiation) (NT2 cells [3]): could not be replicated
cytotoxicity at high concentrations (NT2 cells [2]): cytotoxic

CCCCCC(=O)O[C@H]1CC[C@@]2(C)C(=CC[C@H]3[C@@H]4C[C@@H]5O[C@@]6(CC[C@H](C)CO6)[C@@H](C)[C@@H]5[C@@]4(C)CC[C@@H]32)C1 [SP233, (22S,25S)-(20S)-spirost-5-en-3β-yl hexanoate]
displacement of radiolabeled 22R-hydroxycholesterol binding to Aβ (Aβ [4]): 35%
metabolism to final steroid products / steroid formation [5]: could not be metabolized to final steroid products; also recorded: unable to induce steroid formation
reversal of Aβ-induced decrease in ATP levels (PC12 cells [6]): able to reverse; also recorded: blocked, although in part
protection against 0.1 μM Aβ ([7]; 0.1 μM Aβ): 75%
neuroprotective effect compared with SP222 ([7]; 0.1 μM Aβ): significantly more robust effect than SP222
neuroprotection against 0.1 μM Aβ-induced neurotoxicity [7]: displayed neuroprotective activity
neuroprotection against 1 μM Aβ-induced neurotoxicity [7]: maintained their neuroprotective properties
neuroprotection against 10 μM Aβ-induced neurotoxicity [7]: kept this property; also recorded: exhibited neuroprotective activity
neuroprotection against Aβ-induced neurotoxicity (structure/activity discussion) [7]: the most potent compound
neuroprotection in vitro against Aβ at concentrations as low as ([7]; all assays used): 10 µM
dose-dependence of the neuroprotective effect (PC12 cells [8]; FIG. 15, 0.1, 1.0 and 10.0 μM Aβ): dose-dependent
effect on Aβ-induced cell death (trypan blue uptake) (PC12 cells [8]; SP233 at 30 and 50 μM, 0.1, 1 and 10 μM Aβ): inhibited the Aβ-induced cell death
neuroprotective effect against 10 μM Aβ, membrane potential luminescence (PC12 cells [9]): replicated by the raise of the signal
amount of Aβ polymeric species (Aβ [10]): small dose-dependent increase
trimeric and tetrameric ADDLs (Aβ [10]; 10 μM Aβ, 24 and 72 hours): dose-effect relationship is also observed; also recorded: decreased in a dose-dependent manner
amount of Aβ monomeric species (Aβ [10]; 1 and 10 μM Aβ, 24 and 72 hours): decreases in a dose-dependent manner

CCC(=O)O[C@H]1CC[C@@]2(C)C(=CC[C@H]3[C@@H]4C[C@@H]5O[C@@]6(CC[C@H](C)CN6C(C)=O)[C@@H](C)[C@@H]5[C@@]4(C)CC[C@@H]32)C1 [SP238, (20α)-25S-methyl-N-acetyl-(22S,26)-azacyclofurost-5-en-3β-yl propanoate]
displacement of radiolabeled 22R-hydroxycholesterol binding to Aβ (Aβ [4]): 44%
reversal of Aβ-induced decrease in ATP levels (PC12 cells [6]): did not block; also recorded: no effect on maintaining ATP levels
neuroprotective effect compared with SP222 ([7]; 0.1 μM Aβ): significantly more robust effect than SP222
neuroprotection against 0.1 μM Aβ-induced neurotoxicity [7]: displayed neuroprotective activity
neuroprotection against 1 μM Aβ-induced neurotoxicity [7]: maintained their neuroprotective properties
neuroprotection against 10 μM Aβ-induced neurotoxicity [7]: kept this property; also recorded: exhibited neuroprotective activity
neuroprotection against Aβ-induced neurotoxicity (structure/activity discussion) [7]: able to protect PC12 cells
neuroprotective effect against 10 μM Aβ, membrane potential luminescence (PC12 cells [9]): replicated by the raise of the signal
